Data from patent US8138153B2, “Potassium channel modulator peptide” (National Centre for Biological Sciences, priority 2004, dated 2012).

Test system: K^+ currents (voltage dependent potassium channels) in DRG neurons
Assay type: cell-based, Wistar rats

FHGGSWYRFPWGY-NH2 [Mo1659]
Effect on fast transient K^+ current component: not significantly affected
